Test results: US20120029187A1, “HALOALKYLSULFONANILIDE DERIVATIVE” (Nissan Chemical Industries, Ltd., priority 2009, published 2012)

Columns and labels:
Format in all cases: in vivo
barnyardgrass [1] = assay: Test Example 1: herbicidal effects in preemergence treatment under submerged conditions; settings: dose 2.52 g/a
Summary of the method: (§1)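 Alluvial soil was flooded to 4 cm, sown with barnyardgrass, bulrush and ducksalad, and planted with 2.5-leaf rice seedlings. On the seeding day, water-diluted emulsifiable concentrates were applied to the water surface at set doses (g/a). After three weeks in a 25 to 30° C. greenhouse, mortality was scored 0–5.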

bulrush [2] = assay: as above; settings: dose 2.52 g/a
Summary of the method: as §1

ducksalad [3] = assay: as above; settings: dose 2.52 g/a
Summary of the method: as §1

transplanted rice = assay: Test Example 1: preemergence treatment under submerged conditions, effect on crop; settings: dose 2.52 g/a
Summary of the method: as §1

barnyardgrass [4] = assay: Test Example 2: herbicidal effects during the vegetation period under submerged conditions; settings: treatment during the vegetation period under submerged conditions; dose 2.52 g/a
Summary of the method: (§2)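 Barnyardgrass, bulrush and ducksalad were co-sown in alluvial soil flooded to 4 cm and grown in a greenhouse at 25 to 30° C. At the 1- or 2-leaf stage, water-diluted emulsifiable concentrates went onto the water surface at set doses (g/a). Herbicidal effect was scored three weeks later on a graded scale.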

bulrush [5] = assay: as above; settings: treatment during the vegetation period under submerged conditions; dose 2.52 g/a
Summary of the method: as §2

ducksalad [6] = assay: as above; settings: treatment during the vegetation period under submerged conditions; dose 2.52 g/a
Summary of the method: as §2

Italian ryegrass [7] = assay: Test Example 3: herbicidal effects in soil treatment; settings: dose 6.3 g/a
Summary of the method: (§3)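 Seeds were sown in sterilized diluvial soil and covered with about 1.5 cm of soil. Compounds, formulated as emulsifiable concentrates and diluted with water, were sprayed evenly over the soil surface at set doses in g/a. Herbicidal effect was scored on a rating scale three weeks later.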

barnyardgrass [8] = assay: as above; settings: dose 6.3 g/a
Summary of the method: as §3

common lambsquater [9] = assay: as above; settings: dose 6.3 g/a
Summary of the method: as §3

common ragweed [10] = assay: as above; settings: dose 6.3 g/a
Summary of the method: as §3

giant foxtail [11] = assay: as above; settings: dose 6.3 g/a
Summary of the method: as §3

large crabgrass [12] = assay: as above; settings: dose 6.3 g/a
Summary of the method: as §3

redroot pigweed [13] = assay: as above; settings: dose 6.3 g/a
Summary of the method: as §3

water foxtail [14] = assay: as above; settings: dose 6.3 g/a
Summary of the method: as §3

wild oat [15] = assay: as above; settings: dose 6.3 g/a
Summary of the method: as §3

Italian ryegrass [16] = assay: Test Example 4: herbicidal effect in foliage treatment; settings: dose 6.3 g/a, three weeks after application
Summary of the method: (§4)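 Sowing in sterilized diluvial soil, ~1.5 cm cover; growth 14 d, 25–30° C greenhouse; foliar spray of water-diluted EC at predetermined g/a; scoring 3 wk later on graded scale.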

barnyardgrass [17] = assay: as above; settings: dose 6.3 g/a, three weeks after application
Summary of the method: as §4

beadstraw = assay: as above; settings: dose 6.3 g/a, three weeks after application
Summary of the method: as §4

common chickweed [18] = assay: as above; settings: dose 6.3 g/a, three weeks after application
Summary of the method: as §4

common lambsquater [19] = assay: as above; settings: dose 6.3 g/a, three weeks after application
Summary of the method: as §4

common ragweed [20] = assay: as above; settings: dose 6.3 g/a, three weeks after application
Summary of the method: as §4

giant foxtail [21] = assay: as above; settings: dose 6.3 g/a, three weeks after application
Summary of the method: as §4

large crabgrass [22] = assay: as above; settings: dose 6.3 g/a, three weeks after application
Summary of the method: as §4

redroot pigweed [23] = assay: as above; settings: dose 6.3 g/a, three weeks after application
Summary of the method: as §4

water foxtail [24] = assay: as above; settings: dose 6.3 g/a, three weeks after application
Summary of the method: as §4

wild oat [25] = assay: as above; settings: dose 6.3 g/a, three weeks after application
Summary of the method: as §4

common chickweed [26] = assay: Test Example 3: herbicidal effects in soil treatment; settings: dose 6.3 g/a
Summary of the method: as §3

Compound | A: barnyardgrass, herbicidal effect (evaluation scale 0-5) (barnyardgrass [1]) | B: bulrush, herbicidal effect (evaluation scale 0-5) (bulrush [2]) | C: ducksalad, herbicidal effect (evaluation scale 0-5) (ducksalad [3]) | a: transplanted rice, effect on crop (evaluation scale 0-5) (transplanted rice) | A: barnyardgrass, herbicidal effect (evaluation scale 0-5) (barnyardgrass [4]) | B: bulrush, herbicidal effect (evaluation scale 0-5) (bulrush [5]) | C: ducksalad, herbicidal effect (evaluation scale 0-5) (ducksalad [6]) | H: Italian ryegrass, herbicidal effect (evaluation scale 0-5) (Italian ryegrass [7]) | A: barnyardgrass, herbicidal effect (evaluation scale 0-5) (barnyardgrass [8]) | L: common lambsquater, herbicidal effect (evaluation scale 0-5) (common lambsquater [9]) | J: common ragweed, herbicidal effect (evaluation scale 0-5) (common ragweed [10]) | E: giant foxtail, herbicidal effect (evaluation scale 0-5) (giant foxtail [11]) | D: large crabgrass, herbicidal effect (evaluation scale 0-5) (large crabgrass [12]) | G: water foxtail, herbicidal effect (evaluation scale 0-5) (water foxtail [14]) | F: wild oat, herbicidal effect (evaluation scale 0-5) (wild oat [15]) | H: Italian ryegrass, herbicidal effect (Italian ryegrass [16]) | A: barnyardgrass, herbicidal effect (barnyardgrass [17]) | O: beadstraw, herbicidal effect (beadstraw) | N: common chickweed, herbicidal effect (common chickweed [18]) | L: common lambsquater, herbicidal effect (common lambsquater [19]) | also measured
CC1CC(=O)N(Cc2ccccc2N(C(=O)c2ccccc2)S(=O)(=O)C(F)(F)F)CO1 (centres unmarked) [II-6] | 5 (mortality of 90% or above (nearly complete death)) | 5 (mortality of 90% or above (nearly complete death)) | 5 (mortality of 90% or above (nearly complete death)) | 0 (mortality of less than 5% (almost ineffective)) | 5 (mortality of 90% or above (nearly complete death)) | 5 (mortality of 90% or above (nearly complete death)) | 4 (mortality of at least 70% and less than 90%) | 3 (mortality of at least 40% and less than 70%) | 5 (mortality of 90% or above (nearly complete death)) | 3 (mortality of at least 40% and less than 70%) | 4 (mortality of at least 70% and less than 90%) | 4 (mortality of at least 70% and less than 90%) | 4 (mortality of at least 70% and less than 90%) | 5 (mortality of 90% or above (nearly complete death)) | 0 (mortality of less than 5% (almost ineffective)) | 3 (mortality of at least 40% and less than 70%) | 5 (mortality of 90% or above (nearly complete death)) | 2 (mortality of at least 20% and less than 40%) | 1 (mortality of at least 5% and less than 20%) | 1 (mortality of at least 5% and less than 20%) | K: redroot pigweed, herbicidal effect (evaluation scale 0-5) (redroot pigweed [13]): 0 (mortality of less than 5% (almost ineffective)); J: common ragweed, herbicidal effect (common ragweed [20]): 5 (mortality of 90% or above (nearly complete death)); E: giant foxtail, herbicidal effect (giant foxtail [21]): 4 (mortality of at least 70% and less than 90%); D: large crabgrass, herbicidal effect (large crabgrass [22]): 4 (mortality of at least 70% and less than 90%); K: redroot pigweed, herbicidal effect (redroot pigweed [23]): 0 (mortality of less than 5% (almost ineffective)); G: water foxtail, herbicidal effect (water foxtail [24]): 5 (mortality of 90% or above (nearly complete death)); F: wild oat, herbicidal effect (wild oat [25]): 0 (mortality of less than 5% (almost ineffective))
CCOC(=O)N(c1ccccc1CN1COC(C)(C)CC1=O)S(=O)(=O)C(F)(F)F [II-23, 6,6-dimethyl-3-[2-(N-ethoxycarbonyl-N-trifluoromethanesulfonyl)aminobenzyl]-1,3-oxazinan-4-one] | 5 (mortality of 90% or above (nearly complete death)) | 5 (mortality of 90% or above (nearly complete death)) | 5 (mortality of 90% or above (nearly complete death)) | 0 (mortality of less than 5% (almost ineffective)) | 5 (mortality of 90% or above (nearly complete death)) | 5 (mortality of 90% or above (nearly complete death)) | 5 (mortality of 90% or above (nearly complete death)) | 4 (mortality of at least 70% and less than 90%) | 5 (mortality of 90% or above (nearly complete death)) | 2 (mortality of at least 20% and less than 40%) | 5 (mortality of 90% or above (nearly complete death)) | 5 (mortality of 90% or above (nearly complete death)) | 5 (mortality of 90% or above (nearly complete death)) | 5 (mortality of 90% or above (nearly complete death)) | 0 (mortality of less than 5% (almost ineffective)) | 4 (mortality of at least 70% and less than 90%) | 5 (mortality of 90% or above (nearly complete death)) | 5 (mortality of 90% or above (nearly complete death)) | 4 (mortality of at least 70% and less than 90%) | 4 (mortality of at least 70% and less than 90%) | N: common chickweed, herbicidal effect (evaluation scale 0-5) (common chickweed [26]): 4 (mortality of at least 70% and less than 90%); J: common ragweed, herbicidal effect (common ragweed [20]): 5 (mortality of 90% or above (nearly complete death)); E: giant foxtail, herbicidal effect (giant foxtail [21]): 4 (mortality of at least 70% and less than 90%); D: large crabgrass, herbicidal effect (large crabgrass [22]): 5 (mortality of 90% or above (nearly complete death)); G: water foxtail, herbicidal effect (water foxtail [24]): 5 (mortality of 90% or above (nearly complete death)); F: wild oat, herbicidal effect (wild oat [25]): 0 (mortality of less than 5% (almost ineffective))
